From patent publication US10202351B2, “Pyrazolyl derivatives as pest control agents” (BAYER ANIMAL HEALTH GMBH, priority 2015, dated 2019)

Columns and labels:
Boophilus microplus = Boophilus microplus injection test; format: in vivo; conditions: after 7 days, laying of fertile eggs
Procedure: Solvent: dimethyl sulfoxide […] The animals are transferred into dishes and kept in a climate-controlled room. Efficacy is assessed after 7 days by laying of fertile eggs. Eggs which are not visibly fertile are stored in a climate-controlled cabinet until the larvae hatch after about 42 days.

Ctenocephalides felis [1] = test: Ctenocephalides felis oral test; format: in vivo; conditions: kill after 2 days
Excerpt: Solvent: dimethyl sulfoxide […] Dilution with citrated cattle blood gives the desired concentration. About 20 unfed adult cat fleas (Ctenocephalides felis) are placed into a chamber which is closed at the top and bottom with gauze. A metal cylinder whose bottom end is closed with parafilm is placed onto the chamber. The cylinder contains the blood/active ingredient formulation, which can be imbibed by the fleas through the parafilm membrane.

Lucilia cuprina = Lucilia cuprina test; format: in vivo; conditions: L1 larvae, kill after 2 days
Procedure: (§1) Solvent: dimethyl sulfoxide
(§2) To produce a suitable preparation of active compound, 10 mg of active compound are mixed with 0.5 ml of dimethyl sulfoxide, and the concentrate is diluted with water to the desired concentration.
About 20 L1 larvae of the Australian sheep blowfly (Lucilia cuprina) are transferred into a test vessel containing minced horsemeat and the active compound formulation of the desired concentration.
After 2 days, the kill in % is determined. 100% means that all the larvae have been killed; 0% means that no larvae have been killed.

Musca domestica = Musca domestica test; format: in vivo; conditions: adult houseflies, kill after 2 days
Procedure: as §1, §2
Vessels containing a sponge treated with sugar solution and the active ingredient formulation of the desired concentration are populated with 10 adult houseflies (Musca domestica)).
After 2 days, the kill in % is determined. 100% means that all of the flies have been killed; 0% means that none of the flies have been killed.

Phaedon cochleariae = Phaedon cochleariae spray test; format: in vivo; conditions: larvae on Chinese cabbage leaf discs, after 7 days
Procedure: (§3) Solvent: 78.0 parts by weight of acetone • • 1.5 parts by weight of dimethylformamide Emulsifier: alkylaryl polyglycol ether […] To produce further test concentrations, the formulation is diluted with emulsifier-containing water. Discs of Chinese cabbage leaves (Brassica pekinensis) are sprayed with an active ingredient formulation of the desired concentration and, after drying, populated with larvae of the mustard beetle (Phaedon cochleariae).

Spodoptera frugiperda = Spodoptera frugiperda spray test; format: in vivo; conditions: application rate 100 g/ha, caterpillars on maize leaf discs, after 7 days
Procedure: as §3, with “Leaf discs” for “Discs”, “maize (Zea mays)” for “Chinese cabbage leaves (Brassica pekinensis)”, “compound” for “ingredient”, “caterpillars” for “larvae”, “armyworm (Spodoptera frugiperda).” for “mustard beetle (Phaedon cochleariae).”

Tetranychus urticae = Tetranychus urticae spray test, OP-resistant; format: in vivo; conditions: all stages on bean leaf discs, after 6 days
Procedure: Solvent: 78.0 parts by weight of acetone • • 1.5 parts by weight of dimethylformamide Emulsifier: alkylaryl polyglycol ether […] To produce further test concentrations, the formulation is diluted with emulsifier-containing water. Discs of bean leaves (Phaseolus vulgaris) infested with all stages of the greenhouse red spider mite (Tetranychus urticae) are sprayed with an active ingredient formulation of the desired concentration.

[2] = logP determination by HPLC on reversed-phase column (EEC Directive 79/831 Annex V.A8); format: physicochemical
Ctenocephalides felis [3] = test: Ctenocephalides felis in vitro contact test with adult cat fleas; format: in vivo; conditions: application rate 5 μg/cm^2 (500 g/ha), after 48 h, dead or moribund fleas
Procedure: After the solvent has evaporated off, the tubes are populated with 5-10 adult cat fleas (Ctenocephalides felis), sealed with a perforated plastic lid and incubated in a horizontal position at room temperature and ambient humidity. After 48 h, efficacy is determined. To this end, the tubes are stood upright and the fleas are knocked to the base of the tube. Fleas which remain motionless at the base or move in an uncoordinated manner are considered to be dead or moribund.

[4] = application rate 100 ppm in citrated cattle blood
[5] = Table 1, HPLC C18, acetonitrile/water with formic acid
[6] = Table 3 intermediates, HPLC C18, acetonitrile/water with formic acid

Row | Compound | efficacy (Boophilus microplus; application rate 20 μg/animal) | efficacy (Ctenocephalides felis [1]; [4]) | efficacy (Lucilia cuprina; application rate 100 ppm) | efficacy (Musca domestica; application rate 100 ppm) | efficacy (Phaedon cochleariae; application rate 100 g/ha) | efficacy (Spodoptera frugiperda) | efficacy (Tetranychus urticae; application rate 100 g/ha) | also measured
1 | Cc1cc(C(F)(C(F)(F)F)C(F)(F)F)cc(C(F)(F)F)c1-n1cc(-c2cc(NC(=O)c3ccnc(F)c3)ccc2F)cn1 [Example 2-1] | 100% | 95% | 98% | 100% | 100% | 100% | 90% | –
2 | Cc1cc(C(F)(C(F)(F)F)C(F)(F)F)cc(C(F)(F)F)c1-n1cc(-c2cc(NC(=O)c3ccncc3)ccc2F)cn1 [Example 2-2] | 100% | 95% | 98% | 90% | 100% | 100% | 90% | –
3 | O=C(Nc1cccc(-c2cnn(-c3c(Cl)cc(C(F)(F)F)cc3Cl)c2)c1)c1ccncc1 [Example 3] | 100% | 90% | – | – | – | – | – | efficacy (Phaedon cochleariae; application rate 500 g/ha): 100%; efficacy (Tetranychus urticae; application rate 500 g/ha): 90%; lgP [2, 5]: lgP 3.2
4 | Cc1cc(C(F)(C(F)(F)F)C(F)(F)F)cc(C)c1-n1cc(-c2ccc(Cl)c(NC(=O)c3cccc(F)c3)c2)cn1 [Example 8] | 100% | – | – | – | – | – | – | lgP [2, 5]: lgP 5.59
5 | Cc1cc(C(F)(C(F)(F)F)C(F)(F)F)cc(C)c1-n1cc(-c2ccc(F)c(NC(=O)c3ccncc3)c2F)cn1 [Example 9] | 100% | 100% | 100% | 100% | 100% | 100% | 100% | lgP [2, 5]: lgP 3.92
6 | Cc1cc(C(F)(C(F)(F)F)C(F)(F)F)cc(C)c1-n1cc(-c2ccc(Cl)c(NC(=O)c3ccccc3F)c2)cn1 [Example 10] | 100% | – | – | – | – | – | – | lgP [2, 5]: lgP 6.06
7 | Cc1cc(C(F)(C(F)(F)F)C(F)(F)F)cc(C)c1-n1cc(-c2cnc(Cl)c(NC(=O)C3(C#N)CC3)c2)cn1 [Example 13] | 100% | 100% | 90% | 80% | – | 83% | – | lgP [2, 5]: lgP 4.69
8 | Cc1cc(C(F)(C(F)(F)F)C(F)(F)F)cc(C)c1-n1cc(-c2ccnc(NC(=O)c3ccc(F)cc3)c2)cn1 [Example 14] | 80% | – | – | – | – | – | – | lgP [2, 5]: lgP 4.69
9 | Cc1ncc(-c2cnn(-c3c(Cl)cc(C(F)(C(F)(F)F)C(F)(F)F)cc3Cl)c2)cc1NC(=O)c1ccc(F)cc1 [Example 17] | – | – | – | – | 100% | 100% | 100% | efficacy (Ctenocephalides felis [3]): 100%; efficacy (Boophilus microplus; application rate 4 μg/animal): 100%; efficacy (Ctenocephalides felis [1]; application rate 20 ppm in citrated cattle blood): 100%; efficacy (Lucilia cuprina; application rate 20 ppm): 100%; efficacy (Musca domestica; application rate 20 ppm): 100%
10 | Cc1cc(C(F)(C(F)(F)F)C(F)(F)F)cc(C)c1-n1cc(-c2ccc(N(C)C)c(NC(=O)c3ccncc3)c2)cn1 [Example 20] | 100% | 100% | – | 90% | 100% | 100% | 100% | efficacy (Ctenocephalides felis [3]): 100%
11 | COc1cc(C(=O)Nc2cc(-c3cnn(-c4c(Cl)cc(C(F)(C(F)(F)F)C(F)(F)F)cc4Cl)c3)ccc2F)ccc1F [Example 22] | 100% | 100% | 100% | 100% | 100% | 100% | 100% | –
12 | Cc1cc(C(F)(C(F)(F)F)C(F)(F)F)cc(C(F)(F)F)c1-n1cc(-c2ccc(F)c(NC(=O)C3(C)CC3)c2)cn1 [Example 30] | 100% | 100% | 100% | 100% | 100% | 100% | – | efficacy (Ctenocephalides felis [3]): 100%
13 | COc1cccc(C(=O)Nc2cc(-c3cnn(-c4c(C)cc(C(F)(C(F)(F)F)C(F)(F)F)cc4C(F)(F)F)c3)ccc2F)c1 [Example 32] | 100% | 100% | 100% | 90% | 100% | 100% | – | efficacy (Ctenocephalides felis [3]): 100%
14 | Cc1cc(C(F)(C(F)(F)F)C(F)(F)F)cc(C(F)(F)F)c1-n1cc(-c2ccc(F)c(NC(=O)c3ccc(F)nc3)c2)cn1 [Example 39] | 100% | 100% | 100% | 100% | 100% | 100% | 100% | –
15 | Cc1cc(C(F)(C(F)(F)F)C(F)(F)F)cc(C(F)(F)F)c1-n1cc(-c2ccc(F)c(NC(=O)c3ccc(F)nc3)c2F)cn1 [Example 40] | 100% | 100% | 100% | 100% | 100% | 100% | 100% | –
16 | Cc1cc(C(F)(C(F)(F)F)C(F)(F)F)cc(C(F)(F)F)c1-n1cc(-c2ccc(F)c(NC(=O)c3ccc(C#N)nc3)c2)cn1 [Example 46] | 100% | 100% | 100% | 100% | 100% | 100% | – | efficacy (Ctenocephalides felis [3]): 100%
17 | Cc1cc(C(F)(C(F)(F)F)C(F)(F)F)cc(C(F)(F)F)c1-n1cc(-c2ccc(F)c(NC(=O)C3CSC3)c2F)cn1 [Example 65] | 80% | 100% | 100% | 100% | 100% | 100% | 100% | –
18 | Cc1cc(C(F)(C(F)(F)F)C(F)(F)F)cc(C(F)(F)F)c1-n1cc(-c2cccc(NC(=O)c3ccc(C#N)nc3)c2F)cn1 [Example 69] | 100% | 100% | 100% | – | 100% | 100% | – | efficacy (Ctenocephalides felis [3]): 100%
19 | Cc1cc(C(F)(C(F)(F)F)C(F)(F)F)cc(C(F)(F)F)c1-n1cc(-c2cccc(NC(=O)c3ccc(Cl)nc3)c2F)cn1 [Example 70] | 100% | 100% | 100% | 100% | 100% | 100% | – | –
20 | O=[N+]([O-])c1cccc(-c2cnn(-c3c(Cl)cc(C(F)(F)F)cc3Cl)c2)c1 [II-1] | – | – | – | – | – | – | – | lgP [2, 6]: lgP 4.32
21 | Cc1cc(C(F)(C(F)(F)F)C(F)(F)F)cc(C)c1-n1cc(-c2ccc(Cl)c([N+](=O)[O-])c2)cn1 [II-7, 4-(4-chloro-3-nitrophenyl)-1-[2,6-dimethyl-4-[1,2,2,2-tetrafluoro-1-(trifluoromethyl)ethyl]phenyl]pyrazole] | – | – | – | – | – | – | – | lgP [2, 6]: lgP 5.39; lgP ([2]; synthesis example): 5.39
22 | Nc1cccc(-c2cnn(-c3c(Cl)cc(C(F)(F)F)cc3Cl)c2)c1 [III-1] | – | – | – | – | – | – | – | lgP [2, 6]: lgP 2.90
23 | Cc1cc(C(F)(C(F)(F)F)C(F)(F)F)cc(C)c1-n1cc(-c2ccc(Cl)c(N)c2)cn1 [III-7, 2-chloro-5-[1-[2,6-dimethyl-4-[1,2,2,2-tetrafluoro-1-(trifluoromethyl)ethyl]phenyl]pyrazol-4-yl]aniline] | – | – | – | – | – | – | – | lgP [2, 6]: lgP 4.93; lgP ([2]; synthesis example): 4.93
24 | Cc1cc(C(F)(C(F)(F)F)C(F)(F)F)cc(C)c1-n1cc(-c2ccc(F)c(N)c2)cn1 [III-8] | – | – | – | – | – | – | – | lgP [2, 6]: lgP 4.47
25 | Cc1cc(C(F)(C(F)(F)F)C(F)(F)F)cc(C)c1-n1cc(-c2ccc(F)c(N)c2F)cn1 [III-9] | – | – | – | – | – | – | – | lgP [2, 6]: lgP 4.81
26 | Cc1cc(C(F)(C(F)(F)F)C(F)(F)F)cc(C)c1-n1cc(-c2cccc(N)c2F)cn1 [III-10] | – | – | – | – | – | – | – | lgP [2, 6]: lgP 4.61
